Results on three compounds are retold here after article PMC9463526 (Journal of Pharmaceutical Analysis, 2022).

Read-outs that look alike come from different tables or passages of the source. Some results are limits rather than exact numbers.

Series [1] in a line: Equilibrium dialysis, fraction unbound in patient brain tumor tissue. To be noted: human, five patients, 16 h equilibrium dialysis. Format: in vitro ADME. As to the method: Equilibrium dialysis was employed to measure the fraction unbound of analytes in plasma, brain, and brain tumor tissue homogenates using 96-well DispoEquilibrium Dialyzer plates with a 10 kDa cut-off regenerated cellulose membrane. Dialysis was performed using 180 μL of human plasma or tissue homogenate against an equal volume of PBS (pH 7.4) in a dual-plate rotator (Harvard Apparatus, Holliston, MA, USA). Equilibrium time was initially optimized by analyzing samples after 2, 4, 6, 8, 16, and 24 h of dialysis at concentrations of 20 and 200 nM in human plasma and brain homogenate. The dialysates were collected and processed as described in Sections 2.3.2 and 2.3.3. The recovery of analytes was calculated as the ratio of analyte concentration after dialysis (sum of concentrations found in PBS and matrix fractions) to the total concentration to ensure the reliability and reproducibility of the assay. The experiments were repeated at least three times, and each sample in triplicate and average fraction unbound values were determined.
The fraction unbound in plasma (fu, plasma) and tissue homogenate (fu, hom) was evaluated as the analyte concentration ratio of post-dialysis PBS (cu) to post-dialysis plasma (cp, Eq. (1)) or homogenate (chom, Eq. (2)).(1) fu,plasma =cu/cp (2) fu,hom =cu/chom
The fraction unbound in the actual tissue (fu, tissue) was obtained by incorporating the unbound fraction in the tissue homogenate (fu, hom) and the dilution factor (Df) into Eq. (3).(3) fu,tissue = fu,hom/[Df - (Df - 1)fu,hom]
(§1) Unbound drug levels in the actual plasma and brain tumor tissue were measured using dialysis for 16 h to reach equilibrium. The mean of fraction unbound values determined in five patient samples was calculated.
(§2) The validated bioanalytical method was employed to investigate analytes pharmacokinetics in the plasma, brain tumor, and CSF in GBM patients (ClinicalTrials.gov identifier: NCT04391595). The protocol was reviewed and approved by the Institutional Review Board of the Barrow Neurological Institute, St. Joseph's Hospital and Medical Center (Phoenix, AZ, USA). All patients enrolled in the trial provided written informed consent. […] Blood, CSF, and GBM tissue (including gadolinium-contrast enhancing and non-enhancing regions) samples were obtained intra-operatively from each patient on the […] on the planned operation day. Blood was centrifuged at 4 °C and 3,000 r/min for 10 min; plasma was subsequently collected. Brain tumors were resected 7–9 h after the last dose was administered. Once resected, the tissue samples were rinsed with PBS, paper dried, and freshly frozen in liquid nitrogen. The samples were then stored at −80 °C in a freezer for later analysis.
(In general: In equilibrium dialysis free small molecules cross a membrane that holds back macromolecules.)

A short description of series [2]: Tumor-to-plasma partition coefficients (Kp, Kp,uu) in GBM patients. Format: in vivo, human. The following applies: for Unbound tumor-to-plasma partition coefficient (Kp,uu), fold lower than abemaciclib: both GBM regions, five patients. As to the method: Blank brain and clinical brain tumor tissue homogenates were prepared at 1:9 (m/V) ratio with PBS. The samples were homogenized at a speed of 6.00 m/s for 40 s for three cycles using a Bead Ruptor Elite homogenizer (Omni International, Kennesaw, GA, USA). Plasma was used as a surrogate matrix when preparing calibration curves for brain and brain tumor homogenates and CSF as well as for the PBS fraction after sample dialysis. To minimize matrix differences, all plasma samples were spiked with PBS, while all non-plasma samples were spiked with plasma. Extraction of the analyte and IS was facilitated by protein precipitation using methanol-containing IS precipitation solution. Samples (70 μL) spiked with PBS or plasma were precipitated using 400 μL of IS precipitation solution. After centrifugation at 12,000 r/min for 10 min at 4 °C, the supernatant was transferred for LC-MS/MS analysis.
as §1
as §2, with “The samples were then stored at −80 °C in a freezer for later analysis.” left out

Details of series [3]: method as in investigational brochures. To be noted: ref investigational brochures; cited from earlier work.
Series [4] is described as follows: Pilot pharmacokinetic studies in mice (blood-brain barrier). Format: in vivo.
Where [5] appears, read: pH 7.4, gadolinium contrast enhancing GBM region, read-out: Fraction unbound (fu), GBM (E).
The mark [6] stands for this setting: pH 7.4, gadolinium contrast non-enhancing GBM region, read-out: Fraction unbound (fu), GBM (NE).

For the compound `CCN1CCN(Cc2ccc(Nc3ncc(F)c(-c4cc(F)c5nc(CO)n(C(C)C)c5c4)n3)nc2)CC1` [M20], the fraction unbound (usually free concentration divided by total concentration) at 16 h in series [1] (setting [5]) worked out at 0.022; in series [1] (setting [6]), 0.017. The “Unbound tumor-to-plasma partition coefficient (Kp,uu), fold lower than abemaciclib” value in series [2] is on record as “at least 3 fold”.

Turning to `Cc1nc2c(F)cc(-c3nc(Nc4ccc(CN5CCNCC5)cn4)ncc3F)cc2n1C(C)C` [M2], the unbound share (fraction unbound) at 16 h in series [1] (setting [5]) came out at 0.009; in series [1] (setting [6]) it was 0.006. Moreover, the “Unbound tumor-to-plasma partition coefficient (Kp,uu), fold lower than abemaciclib” value in series [2] is listed as “at least 3 fold”. For the same compound, the “Total tumor-to-plasma partition coefficient (Kp), fold higher than M20” value in series [2] (gadolinium-contrast enhancing and non-enhancing GBM regions) is > 2 fold.

`Cn1nccc1Nc1nccc(-c2cc3c(s2)C(C)(C)N(CCN2CCOCC2)C3=O)n1` [LY3214996]: the figures for the fraction unbound at 16 h in series [1] (setting [5]) and in series [1] (setting [6]) were 0.109 and 0.06, respectively. The “pKa (strongest basic)” value in series [3] is 6.21. In addition, in series [4], the “Crossing of the blood-brain barrier” value is on record as “may cross the blood-brain barrier”.
